This experiment concerns the target T1, HGFR (His6-HGFR cytoplasmic domain) (Homo sapiens, UniProt P08581).
T1 construct: made in house; host or cells: Spodoptera frugiperda Sf9 insect cells (baculovirus, pFastBac-HT)
In words: Inhibitory activity against HGFR tyrosine kinase activity (HTRF). In kind it is biochemical. The conditions noted are these: biotin-poly(GT), ATP, 30° C. 10 min, read-out: IC50 (concentration necessary to inhibit HGFR kinase activity by 50%). The procedure, abridged: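 Baculovirus/Sf9-expressed N-terminal His6-tagged HGFR cytoplasmic domain (from Lys974), Ni-NTA purified, phosphorylated biotin-poly(GT) in Hepes pH 7.4 with MgCl2/MnCl2. ATP added as 4 μM solution; 10 min at 30° C., stopped with EDTA. Phosphotyrosine product detected by HTRF.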
On the technique in general: In TR-FRET formats the signal depends on donor and acceptor labels being close together.

Here are results for 29 compounds from patent publication US20070270421A1, “Novel pyridine Derivative and Pyrimidine Derivative (1)” (priority 2004, published 2007).

The structures appear in SMILES notation. pIC50: −log10 of the molar value.

T1 sequence (P08581 956-1390 limits assumed): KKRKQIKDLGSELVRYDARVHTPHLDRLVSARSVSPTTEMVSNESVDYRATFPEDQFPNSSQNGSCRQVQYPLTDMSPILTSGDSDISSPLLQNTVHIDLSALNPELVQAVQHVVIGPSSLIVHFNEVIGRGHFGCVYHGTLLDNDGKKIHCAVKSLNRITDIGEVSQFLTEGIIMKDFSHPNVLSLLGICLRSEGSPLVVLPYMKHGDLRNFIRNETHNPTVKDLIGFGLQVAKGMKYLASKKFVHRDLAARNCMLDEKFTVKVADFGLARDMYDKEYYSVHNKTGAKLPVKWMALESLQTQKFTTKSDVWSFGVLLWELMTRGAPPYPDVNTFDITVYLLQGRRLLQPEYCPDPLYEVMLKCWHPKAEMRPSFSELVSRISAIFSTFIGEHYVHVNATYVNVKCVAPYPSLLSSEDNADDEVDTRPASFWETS

As to `CN1CC(N2CCC(N(C)C(=O)Nc3cc(Oc4ccc(NC(=S)NC(=O)Cc5ccc(F)cc5)cc4F)ncn3)CC2)C1` [Example 391, 3-(6-{2-Fluoro-4-[3-(4-fluorophenyl)acetylthioureido]phenoxy}pyrimidin-4-yl)-1-methyl-1-[1-(1-methylazetidin-3-yl)piperidin-4-yl]urea], the pIC50 was 7.08. The result for `CN(C)CCN1CCC(N(C)C(=O)Nc2cc(Oc3ccc(NC(=O)NC(=O)Cc4ccc(F)cc4)cc3)ccn2)CC1` [Example 354, 1-[1-(2-Dimethylaminoethyl)piperidin-4-yl]-3-[4-(4-{3-[2-(4-fluorophenyl)acetyl]ureido}phenoxy)pyridin-2-yl]-1-methylurea] reads 6.80.

For the compound `CN1CCN(C2CCN(C(=O)Nc3cc(Oc4ccc(NC(=S)NC(=O)Cc5ccc(F)cc5)cc4F)ncn3)CC2)CC1` [Example 192, 4-(2-Fluoro-4-{3-[2-(4-fluorophenyl)acetyl]thioureido}phenoxy)-6-{[4-(1-methylpiperazin-4-yl)piperidin-1-yl]carbonylamino}pyrimidine], the pIC50 was 7.40. The result for `O=C(Cc1ccc(F)cc1)NC(=S)Nc1ccc(Oc2ccnc(NC(=O)N3CCN(CCN4CCC4)CC3)c2)cc1` [Example 398, 4-[2-(Azetidin-1-yl)ethyl]piperazine-1-carboxylic acid [4-(4-{3-[2-(4-fluorophenyl)acetyl]thioureido}phenoxy)pyridin-2-yl]amide] reads 7.33; that for `CN(C)C(=O)Nc1cc(Oc2ccc(NC(=O)NC(=O)Cc3ccccc3)c(F)c2)ccn1` [Example 54, 3-{4-[3-Fluoro-4-(3-phenylacetylureido)phenoxy]pyridin-2-yl}-1,1-dimethylurea], 7.37. On to `CN1CCC(N2CCN(C(=O)Nc3cc(Oc4ccc(NC(=S)NC(=O)Cc5ccc(F)cc5)cc4F)ncn3)CC2)CC1` [Example 193, 4-(2-Fluoro-4-{3-[2-(4-fluorophenyl)acetyl]thioureido}phenoxy)-6-{[4-(1-methylpiperidin-4-yl)piperazin-1-yl]carbonylamino}pyrimidine], for which the pIC50 is 7.28. The result for `CN1CC[C@H](N(C)C(=O)Nc2cc(Oc3ccc(NC(=S)NC(=O)Cc4ccc(F)cc4)c(F)c3)ncn2)C1` [Example 281, 3-[6-(3-Fluoro-4-{3-[2-(4-fluorophenyl)acetyl]thioureido}phenoxy)pyrimidin-4-yl]-1-methyl-1-[(3S)-1-methylpyrrolidin-3-yl]urea] reads 7.55; that for `CCN(CC)CCCN(C)C(=O)Nc1cc(Oc2ccc(NC(=O)CC(=O)Nc3ccc(F)cc3)c(F)c2)ccn1` [Example 83], 7.09. For the compound `CN1CCC(N2CCN(C(=O)Nc3cc(Oc4ccc(NC(=O)NC(=O)Cc5ccc(F)cc5)cc4)ccn3)CC2)CC1` [Example 346, 4-(4-{3-[2-(4-Fluorophenyl)acetyl]ureido}phenoxy)-2-{[4-(1-methylpiperidin-4-yl)piperazin-1-yl]carbonylamino}pyridine], the pIC50 is 7.00. For the compound `CN(C)CCN1CCC(N(C)C(=O)Nc2cc(Oc3ccc(NC(=S)NC(=O)Cc4ccc(F)cc4)cc3F)ncn2)CC1` [Example 184, 1-[1-(2-Dimethylaminoethyl)piperidin-4-yl]-3-[6-(2-fluoro-4-{3-[2-(4-fluorophenyl)acetyl]thioureido}phenoxy)pyrimidin-4-yl]-1-methylurea], the pIC50 was 6.89. With `CN1CCN(C2CCN(C(=O)Nc3cc(Oc4ccc(NC(=O)NC(=O)Cc5ccccc5)cc4F)ccn3)CC2)CC1` [Example 340, 4-{2-Fluoro-4-[3-(2-phenylacetyl)ureido]phenoxy}-2-{[4-(1-methylpiperazin-4-yl)piperidin-1-yl]carbonylamino}pyridine], the pIC50 was 7.11.

As to `CN1CCC[C@H](N(C)C(=O)Nc2cc(Oc3ccc(NC(=S)NC(=O)Cc4ccc(F)cc4)cc3F)ncn2)C1` [Example 322, 3-[6-(2-Fluoro-4-{3-[2-(4-fluorophenyl)acetyl]thioureido}phenoxy)pyrimidin-4-yl]-1-methyl-1-[(3S)-1-methylpiperidin-3-yl]urea], the pIC50 was 7.37.

As for `Cc1cc(Oc2ccnc(NC(=O)N(C)C)c2)ccc1NC(=O)CC(=O)Nc1ccc(F)cc1` [Example 86, N-{4-[2-(3,3-Dimethylureido)pyridin-4-yloxy]-2-methylphenyl}-N′-(4-fluorophenyl)malonamide], the pIC50 is 7.26. Regarding `CN(C)C(=O)Nc1cc(Oc2ccc(NC(=S)NC(=O)CC3CCCCC3)cc2F)ccn1` [Example 16, 2-[(Dimethylamino)carbonylamino]-4-{2-fluoro-4-[3-(2-cyclohexylacetylthio)ureido]phenoxy}pyridine], the pIC50 was 7.25. The result for `CN1CCC(N2CCN(C(=O)Nc3cc(Oc4ccc(NC(=O)NC(=O)Cc5ccccc5)cc4F)ccn3)CC2)CC1` [Example 341, 4-{2-Fluoro-4-[3-(2-phenylacetyl)ureido]phenoxy}-2-{[4-(1-methylpiperidin-4-yl)piperazin-1-yl]carbonylamino}pyridine] reads 7.00; that for `CN1CCC(N(C)C(=O)Nc2cc(Oc3ccc(NC(=S)NC(=O)Cc4ccc(F)cc4)cc3F)ncn2)CC1` [Example 170, 3-[6-(2-Fluoro-4-{3-[2-(4-fluorophenyl)acetyl]thioureido}phenoxy)pyrimidin-4-yl]-1-methyl-1-(1-methylpiperidin-4-yl)urea], 7.18; that for `CN(C)[C@H]1CCN(C(=O)Nc2cc(Oc3ccc(NC(=S)NC(=O)Cc4ccccc4)cc3F)ccn2)C1` [Example 246, 2-{[(3S)-3-Dimethylaminopyrrolidin-1-yl]carbonylamino}-4-{2-fluoro-4-[3-(2-phenylacetyl)thioureido]phenoxy}pyridine], 7.10. Consider `O=C(Cc1ccc(F)cc1)NC(=O)Nc1ccc(Oc2ccnc(NC(=O)N3CCC(N4CCCC4)CC3)c2)c(F)c1` [Example 174, 4-(Pyrrolidin-1-yl)piperidine-1-carboxylic acid [4-(2-fluoro-4-{3-[2-(4-fluorophenyl)acetyl]ureido}phenoxy)pyridin-2-yl]amide], for which the pIC50 was 7.13. The result for `O=C(Cc1ccccc1)NC(=O)Nc1ccc(Oc2cc(NC(=O)N3CCCC3)ncn2)c(F)c1` [Example 46, Pyrrolidine-1-carboxylic acid {6-[2-fluoro-4-(3-phenylacetylureido)phenoxy]pyrimidin-4-yl}amide] reads 7.35; that for `O=C(Cc1ccc(F)cc1)NC(=O)Nc1ccc(Oc2ccnc(NC(=O)N3CCC(N4CCC4)CC3)c2)cc1F` [Example 178, 4-(Azetidin-1-yl)piperidine-1-carboxylic acid [4-(3-fluoro-4-{3-[2-(4-fluorophenyl)acetyl]ureido}phenoxy)pyridin-2-yl]amide], 7.20. With `CN1CCC(N2CCN(C(=O)Nc3cc(Oc4ccc(NC(=O)NC(=O)Cc5ccc(F)cc5)cc4F)ccn3)CC2)CC1` [Example 345, 4-(2-Fluoro-4-{3-[2-(4-fluorophenyl)acetyl]ureido}phenoxy)-2-{[4-(1-methylpiperidin-4-yl)piperazin-1-yl]carbonylamino}pyridine] the figure was 6.92. As to `O=C(Cc1ccccc1)NC(=S)Nc1ccc(Oc2cc(NC(=O)N3CCC(N4CCCC4)CC3)ncn2)c(F)c1` [Example 8, 4-(Pyrrolidin-1-yl)piperidine-1-carboxylic acid {6-[2-fluoro-4-(3-phenylacetylthioureido)phenoxy]pyrimidin-4-yl}amide], the pIC50 was 7.08. In the case of `CN(C)CCN1CCCN(C(=O)Nc2cc(Oc3ccc(NC(=S)NC(=O)Cc4ccccc4)cc3F)ccn2)CC1` [Example 334, 4-(2-Dimethylaminoethyl)-[1,4]diazepane-1-carboxylic acid {4-[2-fluoro-4-(3-phenylacetylthioureido)phenoxy]pyridin-2-yl}amide], the pIC50 was 6.92. With `CN1CCC(N(C)C(=O)Nc2cc(Oc3ccc(NC(=S)NC(=O)Cc4ccc(F)cc4)c(F)c3)ccn2)CC1` [Example 289, 3-[4-(3-Fluoro-4-{3-[2-(4-fluorophenyl)acetyl]thioureido}phenoxy)pyridin-2-yl]-1-methyl-1-(1-methylpiperidin-4-yl)urea], the pIC50 was 7.17.

Regarding `O=C(CC(=O)Nc1ccc(Oc2ccnc(NC(=O)N3CCCC3)c2)c(Cl)c1)Nc1ccc(F)cc1` [Example 67, N-(3-Chloro-4-{2-[(pyrrolidine-1-carbonyl)amino]pyridin-4-yloxy}phenyl)-N′-(4-fluorophenyl)malonamide], the pIC50 is 7.17. Consider `CN(C)C1CN(C2CCN(C(=O)Nc3cc(Oc4ccc(NC(=S)NC(=O)Cc5ccc(F)cc5)c(F)c4)ccn3)CC2)C1` [Example 189, 4-[3-(Dimethylamino)azetidin-1-yl]piperidine-1-carboxylic acid [4-(3-fluoro-4-{3-[2-(4-fluorophenyl)acetyl]thioureido}phenoxy)pyridin-2-yl]amide], for which the pIC50 was 6.96.

For the compound `CN(C)CCN1CCC(N(C)C(=O)Nc2cc(Oc3ccc(NC(=O)NC(=O)Cc4ccccc4)cc3F)ccn2)CC1` [Example 353, 1-[1-(2-Dimethylaminoethyl)piperidin-4-yl]-3-{4-[2-fluoro-4-(3-phenylacetylureido)phenoxy]pyridin-2-yl}-1-methylurea], the pIC50 was 6.74.

For `CN(C)CCN1CCN(C(=O)Nc2cc(Oc3ccc(NC(=S)NC(=O)Cc4ccc(F)cc4)cc3F)ncn2)CC1` [Example 181, 4-{[4-(2-Dimethylaminoethyl)piperazin-1-yl]carbonylamino}-6-(2-fluoro-4-{3-[2-(4-fluorophenyl)acetyl]thioureido}phenoxy)pyrimidine], the pIC50 was 7.39. As for `CN1CCN(C2CCN(C(=O)Nc3cc(Oc4ccc(NC(=O)NC(=O)Cc5ccc(F)cc5)cc4)ccn3)CC2)CC1` [Example 344, 4-(4-{3-[2-(4-Fluorophenyl)acetyl]ureido}phenoxy)-2-{[4-(1-methylpiperazin-4-yl)piperidin-1-yl]carbonylamino}pyridine], the pIC50 was 6.96.
